The IC50 is the concentration that inhibits the measured activity by half. What is called inhibition is the share of the control response that was lost under treatment.

Assay [1] has as its target Thymidylate synthase (Homo sapiens, UniProt P04818). Description: Inhibition of human thymidylate synthase.
Assay [2] addresses Thymidylate synthase (Escherichia coli, UniProt C3SWJ7). Description: Inhibition of Escherichia coli thymidylate synthase.
A short description of assay [3]: Inhibition of Toxoplasma gondii thymidylate synthase.
Assay [4] can be described thus: Inhibition of Escherichia coli DHFR.
A short description of assay [5]: Inhibition of Toxoplasma gondii DHFR.
Assay [6] in a line: Selectivity ratio of IC50 for Toxoplasma gondii DHFR over IC50 for human recombinant DHFR.
Assay [7] concerns Escherichia coli. Description: Inhibition of Escherichia coli DHFR at >30 uM.
In another assay the target is T1, Dihydrofolate reductase (Homo sapiens, UniProt P00374).
T1 sequence (P00374 whole entry): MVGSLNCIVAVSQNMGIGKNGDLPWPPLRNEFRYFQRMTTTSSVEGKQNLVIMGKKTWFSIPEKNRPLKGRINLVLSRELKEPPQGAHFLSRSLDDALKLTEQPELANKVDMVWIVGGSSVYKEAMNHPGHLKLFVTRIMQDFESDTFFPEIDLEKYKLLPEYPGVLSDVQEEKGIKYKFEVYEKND

Assay [8] has as its system Escherichia coli. The assay can be described thus: Inhibition of Escherichia coli DHFR at >[…] uM.
Assay [9] concerns the target T2, Dihydrofolate reductase (Homo sapiens) (UniProt P00374).
T2 sequence (whole entry): T1 sequence (P00374 whole entry)
Description: Inhibition of human recombinant DHFR at >62 uM.

For assay [10], the target named is Thymidylate synthase (Escherichia coli) (UniProt C3SWJ7). The assay can be described thus: Inhibition of Escherichia coli thymidylate synthase at >20 uM.
Thymidylate synthase (Escherichia coli), sequence (C3SWJ7 1-264): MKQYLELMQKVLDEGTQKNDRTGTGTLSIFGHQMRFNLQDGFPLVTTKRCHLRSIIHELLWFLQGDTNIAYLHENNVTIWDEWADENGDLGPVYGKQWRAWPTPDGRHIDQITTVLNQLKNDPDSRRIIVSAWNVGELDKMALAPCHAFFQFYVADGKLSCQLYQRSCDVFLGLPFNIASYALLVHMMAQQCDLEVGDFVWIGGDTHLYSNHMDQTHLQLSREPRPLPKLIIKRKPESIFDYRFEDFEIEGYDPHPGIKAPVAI
The subject of assay [11] is Toxoplasma gondii. Description: Inhibition of Toxoplasma gondii thymidylate synthase at >20 uM.
Assay [12] addresses T2, Dihydrofolate reductase (Homo sapiens). Description: Inhibition of human recombinant DHFR at >[…] uM.
Assay [13] has as its system Toxoplasma gondii. Description: Inhibition of Toxoplasma gondii thymidylate synthase at >[…] uM.
Assay [14] addresses Thymidylate synthase (Escherichia coli) (UniProt C3SWJ7). The assay can be described thus: Inhibition of Escherichia coli thymidylate synthase at >[…] uM.
Assay [15] shares this target. Description: Inhibition of Escherichia coli thymidylate synthase >[…] uM.

Thymidylate synthase (Escherichia coli, UniProt C3SWJ7), sequence (C3SWJ7 whole entry): as the sequence (C3SWJ7 1-264) above
Thymidylate synthase (Homo sapiens, UniProt P04818), sequence (P04818 whole entry): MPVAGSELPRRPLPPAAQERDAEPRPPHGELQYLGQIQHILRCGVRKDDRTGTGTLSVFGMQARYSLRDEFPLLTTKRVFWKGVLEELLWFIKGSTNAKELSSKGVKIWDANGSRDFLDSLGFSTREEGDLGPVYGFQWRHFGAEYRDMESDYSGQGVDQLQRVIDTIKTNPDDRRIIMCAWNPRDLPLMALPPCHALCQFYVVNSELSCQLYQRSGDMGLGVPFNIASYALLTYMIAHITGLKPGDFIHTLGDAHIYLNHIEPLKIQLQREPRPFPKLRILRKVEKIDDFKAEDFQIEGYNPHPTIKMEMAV

Regarding `Cc1cc2nc(N)[nH]c(=O)c2n1Cc1ccc(Br)cc1`, the 50% inhibitory concentration (IC50) is 1.3 µM on Thymidylate synthase [1]; 7.5 µM on Thymidylate synthase [2]; 18 µM in assay [3]; > 30 µM in assay [4]; 0.27 µM in assay [5]; > 35 µM against Dihydrofolate reductase. The Ratio IC50 in assay [6] is > 130. In the assay with Escherichia coli [7], the inhibition was 10%.
As for `COc1ccc(Cn2c(C)cc3nc(N)[nH]c(=O)c32)cc1`, the 50% inhibitory concentration (IC50) against Thymidylate synthase [1] was 1.5 µM; against Thymidylate synthase [2] it was 15 µM; in [3], 17 µM; in assay [4] it was > 35 µM; in assay [5], 3.5 µM; against Dihydrofolate reductase, > 35 µM. In [6], the Ratio IC50 is > 10. The inhibition with Escherichia coli [8] is 0%.
For `Cc1[nH]c2nc(N)[nH]c(=O)c2c1Sc1ccc(Cl)c(Cl)c1`, the inhibition in assay [9] turned out to be 0%. Also, the concentration for half-maximal inhibition (IC50) on Dihydrofolate reductase is > 62 µM.
With `Cc1cc2nc(N)[nH]c(=O)c2n1Cc1ccc(F)cc1`, the IC50 against Thymidylate synthase [1] was 3.7 µM; against Thymidylate synthase [2] it was 31 µM; in [3] it was 22 µM; in assay [4] it was > 37 µM; in [5], 1.8 µM; against Dihydrofolate reductase, > 37 µM. For the same compound, the Ratio IC50 in assay [6] is > 20.5. Besides, in the assay with Escherichia coli [8], the inhibition was found to be 0%.
Turning to `Cc1cc2nc(N)[nH]c(=O)c2n1Cc1ccc(C(=O)N[C@@H](CCC(=O)O)C(=O)O)cc1`, the IC50 is 0.046 µM at Thymidylate synthase [1]; 0.069 µM against Thymidylate synthase [2]; 0.23 µM in assay [3]; > 23 µM in assay [4]; 0.023 µM in assay [5]; 0.12 µM at Dihydrofolate reductase. For the same compound, the Ratio IC50 in assay [6] is 5.2. Moreover, the inhibition in the assay on Escherichia coli [8] came to 23%.
On to `Cc1cc2nc(N)[nH]c(=O)c2n1Cc1ccc(Cl)cc1`, for which the IC50 on Thymidylate synthase [1] is 2.9 µM; at Thymidylate synthase [2], 1.5 µM; in assay [3], 17 µM; in [4] it was > 35 µM; in assay [5], 0.35 µM; against Dihydrofolate reductase, > 35 µM. Besides, the Ratio IC50 in assay [6] is > 100. The inhibition in the assay on Escherichia coli [8] came to 0%.
In the case of `Cc1[nH]c2nc(N)[nH]c(=O)c2c1Sc1ccc([N+](=O)[O-])cc1`, at Dihydrofolate reductase, the IC50 was > 54 µM.
With `Cc1cc2nc(N)[nH]c(=O)c2n1Cc1ccc([N+](=O)[O-])cc1`, the half-inhibitory concentration (IC50) on Thymidylate synthase [1] was 1.4 µM; on Thymidylate synthase [2], 14 µM; in assay [3], 28 µM; in assay [4], > 33 µM; in [5] it was 0.33 µM; on Dihydrofolate reductase it was 33 µM. Further, the Ratio IC50 in [6] was determined as 100. Besides, the inhibition in the assay on Escherichia coli [8] worked out at 0%.
Turning to `Cc1cc2nc(N)[nH]c(=O)c2n1Cc1ccncc1`, the IC50 was 2.3 µM on Thymidylate synthase [1]; 12 µM at Thymidylate synthase [2]; 15 µM in assay [3]; 39 µM in assay [4]; 20 µM in assay [5]; > 37 µM against Dihydrofolate reductase. Moreover, the Ratio IC50 in assay [6] is > 1.8.
Take `Cc1cc2nc(N)[nH]c(=O)c2n1Cc1cc(Br)cc(Br)c1`: the IC50 against Thymidylate synthase [1] was 10 µM; against Thymidylate synthase [2] it was > 20 µM; in [3] it was > 20 µM; in [4] it was > 24 µM; in [5], 24 µM; on Dihydrofolate reductase it was > 24 µM. For the same compound, in assay [6], the Ratio IC50 was > 1. Moreover, the inhibition in [10] worked out at 36%; in the assay with Toxoplasma gondii [11], 24%; in [12], 0%; in the assay on Escherichia coli [8], 0%.
With `Cc1cc2nc(N)[nH]c(=O)c2n1Cc1ccc(Cl)c(Cl)c1`, the IC50 is 5.4 µM against Thymidylate synthase [1]; 27 µM against Thymidylate synthase [2]; 27 µM in assay [3]; > 32 µM in assay [4]; 1.6 µM in assay [5]; > 32 µM at Dihydrofolate reductase. In addition, in assay [6], the Ratio IC50 is > 20. In addition, the inhibition in the assay on Escherichia coli [8] was found to be 0%.
As to `Cc1cc2nc(N)[nH]c(=O)c2n1Cc1ccccc1`, the concentration for half-maximal inhibition (IC50) was 20 µM at Thymidylate synthase [1]; > 39 µM against Thymidylate synthase [2]; > 39 µM in assay [3]; > 39 µM in assay [4]; 3.9 µM in assay [5]; > 39 µM at Dihydrofolate reductase. For the same compound, the Ratio IC50 in assay [6] was > 10. Moreover, the inhibition in the assay on Toxoplasma gondii [13] was 0%.
As to `Cc1cc2nc(N)[nH]c(=O)c2n1Cc1cc(Cl)cc(Cl)c1`, the IC50 was > 26 µM against Thymidylate synthase [1]; > 26 µM against Thymidylate synthase [2]; > 26 µM in assay [3]; > 31 µM in assay [4]; 15 µM in [5]; > 31 µM against Dihydrofolate reductase. The Ratio IC50 in assay [6] is > 2.1. The inhibition was 0% in assay [14], 15% in assay [15], 13% with Toxoplasma gondii [13] and 0% with Escherichia coli [8].
Take `Cc1cc2nc(N)[nH]c(=O)c2n1Cc1ccc(OC(F)(F)F)cc1`: the IC50 is 1.3 µM at Thymidylate synthase [1]; 7.5 µM at Thymidylate synthase [2]; 13 µM in assay [3]; > 35 µM in assay [4]; 0.3 µM in assay [5]; > 35 µM on Dihydrofolate reductase. The Ratio IC50 in [6] is > 117. The compound further gave an inhibition in the assay with Escherichia coli [8] of 0%.
